Tested on: PRPP levels of isolated splenocytes
Assay: PRPP levels of isolated splenocytes incubated in vitro with UDPG or G-6-P
Format: cell-based, mouse
Conditions: for PRPP levels: soluble fraction of homogenates
Experimental: Isolation of splenocytes and hepatic cells: The organs were gently teased apart with forceps over a fine tea strainer into PBS or minimum essential culture medium (MEM) containing 0.1M potassium phosphate buffer pH 7.4 with and without added effectors. […] The supernatant solutions were assayed for PRPP.
The vials were shaken vigorously and their radioactivity determined.

## O=P(O)(O)OC[C@H]1OC(O)[C@H](O)[C@@H](O)[C@@H]1O (some centres unmarked) [G-6-P, Glucose-6-phosphate]
1.1 mM in MEM
  PRPP levels: 969 pmoles/mg protein
5.5 mM in MEM
  PRPP levels: 1418 pmoles/mg protein
11 mM in MEM
  PRPP levels: 1510 pmoles/mg protein
22 mM in MEM
  PRPP levels: 1998 pmoles/mg protein
Isolated splenocytes, in words
  effect on intracellular PRPP level of splenocytes as a function of concentration: not evident below a concentration of 5.5 mM

— patent publication US5627161A (Memorial Hospital for Cancer and Allied Diseases, priority 1993, dated 1997)
